Assay results: patent US20210196714A1, “COMPOSITIONS AND METHODS FOR TREATING DISORDERS CHARACTERIZED WITH ABERRANT RAS/MAPK SIGNALING” (Duke University, priority 2018, published 2021)
“Also recorded” adds a separate entry of the source.

Key:
[1] = system: kdm6a-MO embryos; test: Jaw defect (MK-CH distance) in kdm6a-MO embryos; assay type: in vivo, zebrafish; details: kdm6a morphant, 5 dpf
Description: FIG. 4: Compound 8 ameliorates the CE and jaw defects caused by loss of rap/and kdm6a. (a) gRNA targeting both zebrafish rap1a and rap1b were injected into embryos at the 1-cell stage with Cas9 protein. Larvae were incubated with compound 8 (100 nM) at the 8-cell stage and scored for micrognathia. 5 dpf larvae were stained with Alcian blue to assess the layout of the jaw cartilage. In comparison to control embryos (top), rap1-CRISPR embryos have smaller jaws. […] (b) Quantitative measurement of the distance between MK and CH cartilages. (c) Larvae were scored for CE (n>30 for each concentration). (d) 5 dpf embryos were stained with Alcian blue to assess the layout of jaw cartilage. […] (e) Quantitative measurement of the distance between MK and CH cartilages. *p<0.05; ***p<0.001. […]
For convergence and extension (CE) phenotyping, embryos were scored as described (see, Leitch, C. C. et al. Nat Genet 40, 443-8 (2008)) at the 8-10 somite stage, and images were captured using an AZ100 microscope and NIS Elements software (Nikon). […] The distance between Meckel's (MK) and ceratohyal (CH) cartilages was measured on ventral bright field images with Image J (NIH). […] Fluorescence signal on embryo heads was imaged with the Nikon AZ100 microscope and DS-Qi1MC digital camera using […] Z-stacks to generate extended depth of focus images. Cell numbers were quantified using the ImageJ ICTN plugin (NIH). […]

[2] = system: zebrafish kmt2d morphants; test: Rescue of convergent-extension (CE) phenotype in kmt2d morphants; assay type: in vivo; details: 100 nM; for rescue of CE defects, repeated experiments: repeated four times by two investigators; for proportion of embryos showing CE defects vs vehicle (DMSO): primary screen, kmt2d-MO, 8-10 somite stage
Description: FIG. 1: In vivo screen using BRAF/MEK/ERK inhibitors. (a) Flow chart of the experimental design. We started the screening with 29 compounds (27 active BRAF/MEK/ERK inhibitors, and 2 negative controls). 26 compounds passed the solubility test and 24 of those passed the toxicity test. For the primary screen, 24 compounds were assessed for their ability to rescue the convergent-extension (CE) phenotype of zebrafish kmt2d morphants, followed by rescue tests of additional phenotypes (jaw and brain) within the kmt2d morphant, or CE of additional genetic KS models. (b) Toxicity results. Twenty embryos at the 8-cell stage were incubated in egg water containing 100 nM, 1 μM, and 10 μM of the 26 compounds. After 24 hours, larvae were scored for toxicity. Black bar: death; grey bar: abnormal morphology; white bar: nontoxic. (c) Embryos were injected with kmt2d-MO at the 2-4 cell stage and soaked in egg water containing 100 nM of each compound at the 8-cell stage. After 24 hours, larvae were scored for CE. […] The efficacy of each compound was determined by a chi-square test in which Class I and Class II were considered together. Note that the compounds were tested in two groups (compounds 1-19 and compounds 20-29), each with its own set of controls.
This library was screened against validated transient suppression reagent for kmt2d. Experiments injected kmt2d-morpholino (MO) into one- to two-cell-stage embryos and soaked them in egg water containing 100 nM of each compound approximately one hour after injection (eight-cell stage).
Morpholinos (MO) were obtained from Gene Tools (Gene Tools, LLC, Philomath, Oreg., USA) and have been described previously (see, Bogershausen, N. et al. J Clin Invest 125, 3585-99 (2015)); kmt2d-MO: 5′-[…]-3′(SEQ ID NO: 1) (5 ng); kdm6a-MO: 5′-[…] (SEQ ID NO: 2) (10 ng). kmt2d-MO and kdm6a-MO was injected into wild type (WT) Ekkwill (EK) zebrafish embryos obtained from natural matings at the 1-4 cell stage. CRISPR target sequences (rap1a: 5′-[…]-3′ (SEQ ID NO: 3) [120 pg], rap1b: 5′-[…]-3′ (SEQ ID NO: 4) [120 pg] (see, Bogershausen, N. et al. J Clin Invest 125, 3585-99 (2015)), and kmt2d: 5′-[…] (SEQ ID NO: 5) [50 pg]) were identified by crispr.mit.edu and cloned into pT7-gRNA (Addgene, Cambridge, USA) following the protocol described in http://www.addgene.org/crispr/Chen/. Guide (g)RNAs were synthesized using the T7 MEGAshortscript kit (ThermoFisher Scientific). […]
For convergence and extension (CE) phenotyping, embryos were scored as described (see, Leitch, C. C. et al. Nat Genet 40, 443-8 (2008)) at the 8-10 somite stage, and images were captured using an AZ100 microscope and NIS Elements software (Nikon). […] The distance between Meckel's (MK) and ceratohyal (CH) cartilages was measured on ventral bright field images with Image J (NIH). […]

Row | SMILES | jaw length / MK-CH distance [1] | rescue of CE defects, repeated experiments [2] | proportion of embryos showing CE defects vs vehicle (DMSO) [2]
1 | CC[C@@H](CO)Nc1ncc(C)c(-c2c[nH]c(C(=O)N[C@H](CO)c3cccc(Cl)c3)c2)n1 [Compound 2, N-((S)-1-(3-chlorophenyl)-2-hydroxyethyl)-4-(2-(((S)-1-hydroxybutan-2-yl)amino)-5-methylpyrimidin-4-yl)-1H-pyrrole-2-carboxamide] | restored significantly the jaw length of morphants and mutants to nearly wild type levels | rescue CE defects; also recorded: consistent and significant rescue | decreased the proportion of embryos showing CE defects
2 | CC(C)c1nc(-c2cccc(NS(=O)(=O)c3c(F)cccc3F)c2F)c(-c2ccnc(N)n2)s1 [Compound 8, desmethyl-Dabrafenib] | can be ameliorated; also recorded: restored significantly the jaw length of morphants and mutants to nearly wild type levels | rescue CE defects; also recorded: consistent and significant rescue | decreased the proportion of embryos showing CE defects
